# Like-named read-outs stand apart in the source and are kept apart here.
# Columns and labels:
# RAF1 = experiment: single-point (1 uM) inhibition assay (ProQinase Kinase Profiler); assay type: biochemical; conditions: 1 uM compound
# NIK = NIK (Homo sapiens, UniProt Q99558); experiment: biochemical; conditions: read-out: Residual activity (%) at 1 uM
# BRK = biological target: T1, BRK (Homo sapiens, UniProt Q13882); experiment: single-point (1 uM) inhibition assay (ProQinase Kinase Profiler); assay type: biochemical; conditions: 1 uM compound, read-out: % residual activity class (FIG. 3)
# T1 construct: purchased ProQinase
# CSF1-R = biological target: T2, CSF1-R (Homo sapiens, UniProt P07333); experiment: as above; assay type: biochemical; conditions: 1 uM compound, read-out: % residual activity class (FIG. 3)
# T2 construct: purchased ProQinase
# BTK = biological target: T3, BTK (Homo sapiens, UniProt Q06187); experiment: as above; assay type: biochemical; conditions: 1 uM compound, read-out: % residual activity class (FIG. 3)
# T3 construct: purchased ProQinase
# B-RAF = biological target: T4, B-RAF (Homo sapiens, UniProt P15056); experiment: as above; assay type: biochemical
# T4 construct: purchased ProQinase
# WNK2 = WNK2 (Homo sapiens, UniProt Q9Y3S1); experiment: biochemical; conditions: read-out: Residual activity (%) at 1 uM
# KIT = biological target: T5, KIT (Homo sapiens, UniProt P10721); experiment: single-point (1 uM) inhibition assay (ProQinase Kinase Profiler); assay type: biochemical
# T5 construct: purchased ProQinase
# EGF-R = biological target: T6, EGF-R (Homo sapiens, UniProt P00533); experiment: as above; assay type: biochemical; conditions: 1 uM compound, read-out: % residual activity class (FIG. 3)
# T6 construct: purchased ProQinase
# LCK = biological target: T7, LCK (Homo sapiens, UniProt P06239); experiment: as above; assay type: biochemical; conditions: 1 uM compound, read-out: % residual activity class (FIG. 3)
# T7 construct: purchased ProQinase
# EPHA4 = biological target: T8, EPHA4 (Homo sapiens, UniProt P54764); experiment: as above; assay type: biochemical
# T8 construct: purchased ProQinase
# YES = biological target: T9, YES (Homo sapiens, UniProt P07947); experiment: as above; assay type: biochemical; conditions: 1 uM compound, read-out: % residual activity class (FIG. 3)
# T9 construct: purchased ProQinase
# EPHA8 = biological target: T10, EPHA8 (Homo sapiens, UniProt P29322); experiment: as above; assay type: biochemical
# T10 construct: purchased ProQinase
# EPHA2 = biological target: T11, EPHA2 (Homo sapiens, UniProt P29317); experiment: as above; assay type: biochemical
# T11 construct: purchased ProQinase
# [1] = human liver microsomal stability; assay type: in vitro ADME
# TGFB-R1 = biological target: T12, TGFB-R1 (Homo sapiens, UniProt P36897); experiment: single-point (1 uM) inhibition assay (ProQinase Kinase Profiler); assay type: biochemical; conditions: 1 uM compound, read-out: % residual activity class (FIG. 3)
# T12 construct: purchased ProQinase
# ACV-R2A = biological target: T13, ACV-R2A (Homo sapiens, UniProt P27037); experiment: as above; assay type: biochemical; conditions: 1 uM compound, read-out: % residual activity class (FIG. 3)
# T13 construct: purchased ProQinase
# SRC = biological target: T14, SRC (Homo sapiens, UniProt P12931); experiment: biochemical; conditions: 1 uM compound, read-out: % residual activity class (FIG. 3)
# T14 construct: purchased ProQinase
# ERBB4 = biological target: T15, ERBB4 (Homo sapiens, UniProt Q15303); experiment: single-point (1 uM) inhibition assay (ProQinase Kinase Profiler); assay type: biochemical; conditions: 1 uM compound, read-out: % residual activity class (FIG. 3)
# T15 construct: purchased ProQinase
# ABL1 = biological target: T16, ABL1 (Homo sapiens, UniProt P00519); experiment: biochemical; conditions: 1 uM compound, read-out: % residual activity class (FIG. 3)
# T16 construct: purchased ProQinase
# FLT3 = biological target: T17, FLT3 (Homo sapiens, UniProt P36888); experiment: single-point (1 uM) inhibition assay (ProQinase Kinase Profiler); assay type: biochemical; conditions: read-out: % residual activity class (FIG. 3)
# T17 construct: purchased ProQinase
# [2] = mouse liver microsomal stability; assay type: in vitro ADME
# BMX = biological target: T18, BMX (Homo sapiens, UniProt P51813); experiment: single-point (1 uM) inhibition assay (ProQinase Kinase Profiler); assay type: biochemical; conditions: 1 uM compound, read-out: % residual activity class (FIG. 3)
# T18 construct: purchased ProQinase
# FGF-R2 = FGF-R2 (Homo sapiens, UniProt P21802); experiment: as above; assay type: biochemical; conditions: read-out: % residual activity class (FIG. 3)
# ACV-R2B = ACV-R2B (Homo sapiens, UniProt Q13705); experiment: biochemical; conditions: read-out: % residual activity class (FIG. 3)
# EPHA6 = EPHA6 (Homo sapiens, UniProt Q9UF33); experiment: single-point (1 uM) inhibition assay (ProQinase Kinase Profiler); assay type: biochemical; conditions: 1 uM compound, read-out: % residual activity class (FIG. 3)
# [3] = cited from earlier work
# KU812 tumours = conditions: large KU812 tumours (up to >1 g); 50 mg/kg/day for 5 days; cited from earlier work
# ERBB2 = ERBB2 (Homo sapiens, UniProt P04626); experiment: single-point (1 uM) inhibition assay (ProQinase Kinase Profiler); assay type: biochemical; conditions: read-out: % residual activity class (FIG. 3)
# p38-beta = p38-beta (Homo sapiens, UniProt Q15759); experiment: biochemical; conditions: read-out: % residual activity class (FIG. 3)
# hERG potassium channel = hERG potassium channel (Homo sapiens, UniProt Q12809); conditions: page 31, NDA 21-986, cited from earlier work
# K562 CML cells = conditions: cited from earlier work
# [4] = read-out: % residual activity class (FIG. 3)
# [5] = read-out: Residual activity (%) at 1 uM
# T5 sequence (P10721 26-976): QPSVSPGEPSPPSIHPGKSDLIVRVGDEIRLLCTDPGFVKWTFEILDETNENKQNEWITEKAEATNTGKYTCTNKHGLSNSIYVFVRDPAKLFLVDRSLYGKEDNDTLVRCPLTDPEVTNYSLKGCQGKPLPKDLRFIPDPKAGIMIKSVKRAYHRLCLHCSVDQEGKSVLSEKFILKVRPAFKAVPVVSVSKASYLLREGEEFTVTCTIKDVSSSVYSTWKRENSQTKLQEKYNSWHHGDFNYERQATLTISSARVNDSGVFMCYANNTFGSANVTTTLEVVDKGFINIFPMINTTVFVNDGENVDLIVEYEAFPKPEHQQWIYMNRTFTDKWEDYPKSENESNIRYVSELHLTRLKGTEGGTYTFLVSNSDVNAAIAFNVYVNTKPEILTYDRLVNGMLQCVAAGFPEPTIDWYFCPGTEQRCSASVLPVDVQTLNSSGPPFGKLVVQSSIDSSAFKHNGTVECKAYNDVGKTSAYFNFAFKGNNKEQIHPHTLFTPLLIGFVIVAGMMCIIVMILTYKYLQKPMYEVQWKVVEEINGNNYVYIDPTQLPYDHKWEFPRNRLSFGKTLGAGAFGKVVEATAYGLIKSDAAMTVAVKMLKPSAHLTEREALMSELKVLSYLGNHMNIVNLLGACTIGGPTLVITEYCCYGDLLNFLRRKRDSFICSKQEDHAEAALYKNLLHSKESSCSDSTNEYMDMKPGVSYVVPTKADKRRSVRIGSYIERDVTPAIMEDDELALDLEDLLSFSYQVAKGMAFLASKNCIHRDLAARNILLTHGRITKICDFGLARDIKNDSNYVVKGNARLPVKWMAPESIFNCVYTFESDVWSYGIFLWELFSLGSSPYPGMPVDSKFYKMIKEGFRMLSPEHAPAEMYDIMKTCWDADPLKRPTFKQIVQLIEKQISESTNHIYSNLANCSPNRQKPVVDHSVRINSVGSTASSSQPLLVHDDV
# T4 sequence (P15056 whole entry): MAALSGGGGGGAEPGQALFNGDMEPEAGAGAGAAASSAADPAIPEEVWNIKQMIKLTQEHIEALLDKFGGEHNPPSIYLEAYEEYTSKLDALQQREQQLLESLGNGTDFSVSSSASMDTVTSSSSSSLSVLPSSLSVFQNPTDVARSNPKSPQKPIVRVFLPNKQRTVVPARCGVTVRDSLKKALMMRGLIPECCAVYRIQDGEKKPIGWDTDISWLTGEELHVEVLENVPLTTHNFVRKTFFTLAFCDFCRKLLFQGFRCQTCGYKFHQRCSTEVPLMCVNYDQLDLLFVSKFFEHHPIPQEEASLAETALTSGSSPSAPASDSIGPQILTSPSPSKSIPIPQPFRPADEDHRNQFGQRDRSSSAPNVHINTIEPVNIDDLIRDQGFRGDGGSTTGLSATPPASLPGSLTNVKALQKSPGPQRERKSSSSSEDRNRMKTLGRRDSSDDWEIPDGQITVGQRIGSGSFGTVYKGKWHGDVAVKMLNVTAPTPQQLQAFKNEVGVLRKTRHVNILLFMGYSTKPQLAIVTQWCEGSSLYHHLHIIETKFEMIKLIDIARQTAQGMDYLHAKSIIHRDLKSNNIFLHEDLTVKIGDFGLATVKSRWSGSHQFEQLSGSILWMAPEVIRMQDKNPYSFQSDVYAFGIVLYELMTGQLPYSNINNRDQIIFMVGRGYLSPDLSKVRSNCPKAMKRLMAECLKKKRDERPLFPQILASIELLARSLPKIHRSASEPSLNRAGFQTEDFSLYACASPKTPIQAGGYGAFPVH
# hERG potassium channel, sequence (Q12809 whole entry): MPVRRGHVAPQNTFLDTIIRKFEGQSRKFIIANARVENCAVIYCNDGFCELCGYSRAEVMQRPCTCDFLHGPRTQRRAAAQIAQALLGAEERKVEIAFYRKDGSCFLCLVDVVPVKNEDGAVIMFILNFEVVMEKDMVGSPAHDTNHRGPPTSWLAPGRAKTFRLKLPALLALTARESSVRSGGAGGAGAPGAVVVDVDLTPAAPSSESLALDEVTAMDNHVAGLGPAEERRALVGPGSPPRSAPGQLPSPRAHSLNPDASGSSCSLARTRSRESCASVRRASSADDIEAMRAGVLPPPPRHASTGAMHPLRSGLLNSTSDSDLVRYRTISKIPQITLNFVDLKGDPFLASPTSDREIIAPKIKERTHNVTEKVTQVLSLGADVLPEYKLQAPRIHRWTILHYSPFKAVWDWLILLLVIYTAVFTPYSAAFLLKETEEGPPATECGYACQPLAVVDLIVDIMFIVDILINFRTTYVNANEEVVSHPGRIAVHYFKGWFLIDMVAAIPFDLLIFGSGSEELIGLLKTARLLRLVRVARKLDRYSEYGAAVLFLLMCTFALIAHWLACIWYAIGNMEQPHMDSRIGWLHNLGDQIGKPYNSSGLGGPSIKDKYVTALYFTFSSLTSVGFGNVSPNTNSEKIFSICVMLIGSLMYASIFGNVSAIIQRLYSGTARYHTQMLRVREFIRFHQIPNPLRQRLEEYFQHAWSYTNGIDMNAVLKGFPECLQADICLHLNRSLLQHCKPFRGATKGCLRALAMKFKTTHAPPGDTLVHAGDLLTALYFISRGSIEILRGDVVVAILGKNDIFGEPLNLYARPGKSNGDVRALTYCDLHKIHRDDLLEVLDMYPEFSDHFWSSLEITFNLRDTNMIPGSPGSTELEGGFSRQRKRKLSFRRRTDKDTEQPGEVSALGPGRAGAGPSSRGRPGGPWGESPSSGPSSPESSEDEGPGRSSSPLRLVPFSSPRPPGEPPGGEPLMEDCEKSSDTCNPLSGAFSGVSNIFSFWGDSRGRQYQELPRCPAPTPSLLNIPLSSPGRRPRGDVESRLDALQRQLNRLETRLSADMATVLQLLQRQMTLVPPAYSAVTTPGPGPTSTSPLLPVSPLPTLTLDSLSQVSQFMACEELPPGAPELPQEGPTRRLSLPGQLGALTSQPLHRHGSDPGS
# T8 sequence (P54764 20-986): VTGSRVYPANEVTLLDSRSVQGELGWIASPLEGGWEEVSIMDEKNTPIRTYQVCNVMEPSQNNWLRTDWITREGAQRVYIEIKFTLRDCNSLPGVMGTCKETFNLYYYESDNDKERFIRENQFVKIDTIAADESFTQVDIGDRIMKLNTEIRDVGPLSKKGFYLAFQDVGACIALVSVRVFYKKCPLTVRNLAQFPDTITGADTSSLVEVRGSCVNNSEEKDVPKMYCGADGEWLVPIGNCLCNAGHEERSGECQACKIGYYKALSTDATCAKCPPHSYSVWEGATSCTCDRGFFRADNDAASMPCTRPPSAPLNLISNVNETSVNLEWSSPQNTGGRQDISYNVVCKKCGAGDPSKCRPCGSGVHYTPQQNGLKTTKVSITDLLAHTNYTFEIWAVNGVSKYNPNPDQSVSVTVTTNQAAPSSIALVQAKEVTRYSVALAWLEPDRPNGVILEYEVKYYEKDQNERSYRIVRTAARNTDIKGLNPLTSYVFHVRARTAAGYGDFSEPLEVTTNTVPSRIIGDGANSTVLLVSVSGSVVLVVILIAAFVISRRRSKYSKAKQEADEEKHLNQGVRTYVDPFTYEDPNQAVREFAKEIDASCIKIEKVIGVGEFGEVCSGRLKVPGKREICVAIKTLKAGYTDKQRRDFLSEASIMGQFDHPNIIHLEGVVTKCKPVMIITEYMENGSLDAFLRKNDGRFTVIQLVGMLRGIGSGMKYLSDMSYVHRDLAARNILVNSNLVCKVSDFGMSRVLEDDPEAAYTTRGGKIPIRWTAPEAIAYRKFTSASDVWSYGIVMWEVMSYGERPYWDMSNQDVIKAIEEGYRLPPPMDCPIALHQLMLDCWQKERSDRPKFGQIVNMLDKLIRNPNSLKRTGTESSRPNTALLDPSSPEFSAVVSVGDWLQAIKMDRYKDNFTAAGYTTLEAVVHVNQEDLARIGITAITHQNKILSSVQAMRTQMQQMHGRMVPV
# T10 sequence (P29322 28-1005): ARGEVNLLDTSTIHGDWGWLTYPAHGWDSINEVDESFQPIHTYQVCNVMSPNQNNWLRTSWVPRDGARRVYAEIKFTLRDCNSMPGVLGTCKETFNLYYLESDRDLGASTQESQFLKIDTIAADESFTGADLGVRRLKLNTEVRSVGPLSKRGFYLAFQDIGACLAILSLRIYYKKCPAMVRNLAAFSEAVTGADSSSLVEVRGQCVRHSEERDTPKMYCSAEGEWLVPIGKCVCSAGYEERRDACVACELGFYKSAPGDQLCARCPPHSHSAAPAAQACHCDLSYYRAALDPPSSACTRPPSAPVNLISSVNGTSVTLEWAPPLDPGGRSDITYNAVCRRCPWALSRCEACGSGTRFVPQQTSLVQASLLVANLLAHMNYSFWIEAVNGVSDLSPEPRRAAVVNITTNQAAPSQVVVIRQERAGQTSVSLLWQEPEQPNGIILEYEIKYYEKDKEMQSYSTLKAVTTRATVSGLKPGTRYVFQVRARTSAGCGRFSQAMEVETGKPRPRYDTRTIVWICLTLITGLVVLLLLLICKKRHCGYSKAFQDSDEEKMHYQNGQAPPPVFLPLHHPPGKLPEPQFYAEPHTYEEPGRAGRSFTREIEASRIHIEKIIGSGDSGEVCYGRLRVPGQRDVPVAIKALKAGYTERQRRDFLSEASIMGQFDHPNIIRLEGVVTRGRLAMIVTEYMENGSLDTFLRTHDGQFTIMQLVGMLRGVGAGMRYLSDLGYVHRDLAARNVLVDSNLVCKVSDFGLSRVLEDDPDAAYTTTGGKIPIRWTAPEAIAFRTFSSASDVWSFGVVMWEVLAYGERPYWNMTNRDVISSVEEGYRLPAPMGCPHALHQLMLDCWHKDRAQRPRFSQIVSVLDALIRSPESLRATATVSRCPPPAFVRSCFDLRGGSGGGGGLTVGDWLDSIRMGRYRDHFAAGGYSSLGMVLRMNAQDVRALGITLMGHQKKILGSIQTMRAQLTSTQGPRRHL
smiles,measurement,setting,value
"Cc1nc(Nc2ncc(C(=O)Nc3c(Cl)ccnc3C)s2)cc(N2CCN(CCO)CC2)n1 [Compound B3, N-(4-chloro-2-methylpyridin-3-yl)-2-((6-(4-(2-hydroxyethyl)piperazin-1-yl)-2-methylpyrimidin-4-yl)amino)thiazole-5-carboxamide]",% residual activity class (FIG. 3),RAF1,*** (25% to <50% residual activity)
same,remaining activity at 1 µM,NIK,100%
same,remaining activity at 1 µM,BRK,< 25%
same,remaining activity at 1 µM,CSF1-R,< 25%
same,remaining activity at 1 µM,BTK,< 25%
same,remaining activity at 1 µM,B-RAF; [4],25 to 50%
same,remaining activity at 1 µM,B-RAF; [5],~50%
same,remaining activity at 1 µM,WNK2,100%
same,remaining activity at 1 µM,KIT; [4],< 25%
same,remaining activity at 1 µM,KIT; [5],5%
same,remaining activity at 1 µM,EGF-R,25 to 50%
same,remaining activity at 1 µM,LCK,< 25%
same,remaining activity at 1 µM,EPHA4; [4],< 25%
same,remaining activity at 1 µM,EPHA4; [5],10%
same,remaining activity at 1 µM,YES,< 25%
same,remaining activity at 1 µM,EPHA8; [4],< 25%
same,remaining activity at 1 µM,EPHA8; [5],3%
same,remaining activity at 1 µM,EPHA2; [4],< 25%
same,remaining activity at 1 µM,EPHA2; [5],0%
same,Half-life,[1],0.967 h
same,remaining activity at 1 µM,TGFB-R1,25 to 50%
same,remaining activity at 1 µM,ACV-R2A,25 to 50%
same,remaining activity at 1 µM,SRC,< 25%
same,remaining activity at 1 µM,ERBB4,< 25%
same,remaining activity at 1 µM,ABL1,< 25%
same,remaining activity at 1 µM,FLT3,25 to 50%
same,Half-life,[2],1.03 h
same,remaining activity at 1 µM,BMX,< 25%
"Cc1nc(Nc2ncc(C(=O)Nc3c(C)cccc3Cl)s2)cc(N2CCN(CCO)CC2)n1 [Compound A8, N-(2-chloro-6-methylphenyl)-2-((6-(4-(2-hydroxyethyl)piperazin-1-yl)-2-methylpyrimidin-4-yl)amino)thiazole-5-carboxamide, reference compound]",remaining activity at 1 µM,FGF-R2,25 to 50%
same,remaining activity at 1 µM,ACV-R2B,< 25%
same,remaining activity at 1 µM,EPHA6,25 to 50%
same,cardiac adverse reactions,[3]; 258 patients taking dasatinib,5.8 % of patients
same,"cardiomyopathy, heart failure congestive, diastolic dysfunction, fatal myocardial infarction, and left ventricular dysfunction",[3]; 258 patients taking dasatinib,1.6 % of patients
same,other cases of severe haemorrhage,[3]; all clinical studies,2 % of patients
same,severe central nervous system (CNS) haemorrhages (including fatalities),[3]; all clinical studies,1 % of patients
same,"severe gastrointestinal haemorrhage, including fatalities",[3]; all clinical studies,4 % of patients
same,QT prolongation,[3]; clinical trials,up to 1 % of CML patients
same,severe fluid retention,[3]; clinical trials,up to 10 % of patients
same,tumour response,KU812 tumours,curative
same,remaining activity at 1 µM,ERBB2,25 to 50%
same,remaining activity at 1 µM,p38-beta,< 25%
same,inhibition of hERG currents,hERG potassium channel; 3 uM,about 6%
same,inhibition of hERG currents,hERG potassium channel; 10 uM,~36%
same,survival,K562 CML cells; 10 mg/kg/day,increased survival
same,survival / intracranial tumour growth,"K562 CML cells; similar study, dasatinib 10 and 30 mg/kg/day, imatinib 200 mg/kg/day",increased survival
